Measured values as given in ChEMBL document CHEMBL1201862, “PubChem BioAssay data set” (2004).
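How tested: cells in 96-well plates exposed to compound for 48 hours at five concentrations. Abbreviation: GI50, concentration required for 50% inhibition of growth.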 Calls of active or inactive are those of the source. Rule as the data show it: active = GI50 up to about 1.1 µM and inactive = higher.

Key:
Experiment in all cases: NCI-60 cell line screen, 48 h
U-251 = system: U-251
OVCAR-5 = system: OVCAR-5
PC-3 = system: PC-3
CCRF-CEM = system: CCRF-CEM
MDA-N = system: MDA-N
786-0 = system: 786-0
OVCAR-3 = system: OVCAR-3
UACC-62 = system: UACC-62
NCI-H226 = system: NCI-H226
HOP-62 = system: HOP-62
MOLT-4 = system: MOLT-4
MDA-MB-231 = system: MDA-MB-231
SK-MEL-5 = system: SK-MEL-5
HT-29 = system: HT-29
SK-MEL-28 = system: SK-MEL-28
DU-145 = system: DU-145
SF-539 = system: SF-539
Malme-3M = system: Malme-3M
A498 = system: A498

Measured: GI50

COc1cc2c(cc1O)CC1c3c(cc(O)c(OC)c3-2)CCN1C (centres undefined)
inactive: U-251 > 86.1 µM | OVCAR-5 > 100 µM | PC-3 > 96.6 µM | CCRF-CEM > 100 µM | MDA-N > 100 µM | 786-0 > 100 µM | OVCAR-3 98.9 µM | UACC-62 > 100 µM | NCI-H226 69.7 µM | HOP-62 > 100 µM | MOLT-4 > 58.3 µM | MDA-MB-231 > 100 µM | SK-MEL-5 > 89.7 µM | HT-29 62.2 µM | SK-MEL-28 > 100 µM | DU-145 > 100 µM | SF-539 > 39.9 µM | Malme-3M > 100 µM | A498 > 100 µM

Oc1cc2c3c(c1)CCCN3CCC2
inactive: U-251 > 10 µM | OVCAR-5 > 10 µM | PC-3 > 10 µM | CCRF-CEM > 10 µM | MDA-N > 10 µM | 786-0 > 10 µM | OVCAR-3 > 10 µM | UACC-62 > 10 µM | NCI-H226 > 10 µM | HOP-62 > 10 µM | MOLT-4 > 10 µM | MDA-MB-231 > 10 µM | SK-MEL-5 > 10 µM | HT-29 > 10 µM | SK-MEL-28 > 10 µM | DU-145 > 10 µM | SF-539 > 10 µM | Malme-3M > 10 µM | A498 > 10 µM

COc1ccc(C(OCC2OC(n3cc(C)c(=O)[nH]c3=O)CC2n2cc(Cn3cc(F)c(=O)[nH]c3=O)nn2)(c2ccccc2)c2ccccc2)cc1 (centres undefined)
inactive: U-251 3.78 µM | OVCAR-5 10.4 µM | PC-3 4.33 µM | CCRF-CEM 2.56 µM | MDA-N 1.54 µM | 786-0 3.67 µM | OVCAR-3 5.26 µM | UACC-62 11 µM | NCI-H226 4.42 µM | HOP-62 4.1 µM | MOLT-4 4.54 µM | MDA-MB-231 2.69 µM | SK-MEL-5 7.82 µM | HT-29 6.28 µM | SK-MEL-28 11.3 µM | DU-145 6.44 µM | SF-539 4.23 µM | Malme-3M 9.04 µM | A498 10.1 µM

CCN1CCC(O)(/C=C/c2ccc(C)cc2C)C(C(=O)/C=C/c2ccc(C)cc2C)C1 (centres undefined)
inactive: U-251 3.39 µM | OVCAR-5 4.29 µM | PC-3 2.5 µM | CCRF-CEM 1.82 µM | MDA-N 2.2 µM | 786-0 1.71 µM | OVCAR-3 2.53 µM | UACC-62 3.41 µM | NCI-H226 2.77 µM | HOP-62 2.89 µM | MOLT-4 1.28 µM | MDA-MB-231 2.23 µM | SK-MEL-5 3.04 µM | HT-29 2.16 µM | SK-MEL-28 4.7 µM | DU-145 4.59 µM | SF-539 1.92 µM | Malme-3M 5.82 µM | A498 9.59 µM

O=c1[nH]nc(-c2ccc([N+](=O)[O-])cc2)n1/N=C/c1ccc([N+](=O)[O-])cc1
inactive: U-251 71.4 µM | OVCAR-5 > 100 µM | PC-3 57.9 µM | CCRF-CEM 45 µM | MDA-N > 100 µM | 786-0 78.7 µM | OVCAR-3 > 100 µM | UACC-62 71.4 µM | NCI-H226 > 100 µM | HOP-62 > 100 µM | MOLT-4 23.6 µM | MDA-MB-231 > 100 µM | SK-MEL-5 48.4 µM | HT-29 74 µM | SK-MEL-28 > 100 µM | DU-145 > 100 µM | SF-539 > 100 µM | Malme-3M > 100 µM | A498 > 100 µM

CCC1CCC2C3CC=C4CC(OC(C)=O)C(N)CC4(C)C3CCC12C (centres undefined)
inactive: U-251 1.86 µM | OVCAR-5 6.21 µM | PC-3 2.71 µM | CCRF-CEM 2.47 µM | MDA-N 2.7 µM | 786-0 2.02 µM | OVCAR-3 5.85 µM | UACC-62 4.89 µM | NCI-H226 20.2 µM | HOP-62 2.08 µM | MOLT-4 2.37 µM | MDA-MB-231 1.95 µM | SK-MEL-5 1.82 µM | HT-29 2.36 µM | SK-MEL-28 3.66 µM | DU-145 2.92 µM | SF-539 1.86 µM | Malme-3M 3.49 µM | A498 5.25 µM
